Results: PMC10722499, “Consumption of Roasted Coffee Leads to Conjugated Metabolites of Atractyligenin in Human Plasma” (Journal of Agricultural and Food Chemistry, 2023)
Like-named read-outs stand apart in the source and are kept apart here.

Experiment: Human coffee intervention study: plasma concentrations after roasted coffee brew by UPLC-MS/MS
Type: in vivo
Details: for samples above the LLOQ: n = 10; for concentration at 1 h / concentration at 4 h / concentration at 10 h: human, plasma
Protocol: The study included ten volunteers (5 females, 5 males) (age: 28.3 ± 2.3 years; BMI: 21.89 ± 2.22 kg/m^2). The intervention study took place from November 5, 2021, to February 17, 2022, in the core facility human studies of the ZIEL Institute for Food and Health of the Technical University of Munich. The study was performed in agreement with the Declaration of Helsinki, and all participants gave written informed consent. The study was approved by the Ethics Committee of the Technical University of Munich (5798/13 S-SR) and registered in the German Register of Clinical Studies (DRKS00005083).
The study participants underwent a dietary protocol that excluded all forms of coffee consumption. Additionally, chocolate, black/green/white, mate tea, cola, energy drinks, and beauty products containing caffeine (e.g., shampoos, creams) were prohibited 1 week before the test day. Furthermore, the study participants received a standardized meal the evening before the test day. The meal was composed of pasta, margarine, and salt, and the amount of energy was calculated based on the participant’s basal energy demand. On the morning of the test day, the participants were in a fastened state and received water (control samples) or coffee brew (coffee intervention) as breakfast. Blood was sampled before coffee intake (0 h) and at defined time points (1, 4, and 10 h) after coffee intake. 6 h after the coffee intake, the participants received lunch, the same standardized meal as the previous dinner. The administered coffee was prepared from a coffee capsule (Nespresso, ROMA) with 100 mL water. The administered volume of the coffee brew was 200 mL. Based on the coffee powder per capsule ([…]), the concentrations of 2 (2.8 μmol/g) and 3 (1.1 μmol/g), respectively,[10] and an estimated extraction rate of 100%, the total ingested amounts were 33.6 μmol (2) and 13.2 μmol (3).
In an Eppendorf tube (1.5 mL), aliquots (50 μL each) of the calibration standard, sample, or QC, respectively, were mixed with the IS solution (1000 nM in ethanol, 50 μL) and acetonitrile/ethanol (9 + 1, v + v, 50 μL) was added. After vortexing, suspensions were cleared by centrifugation (12,000 rpm, 4 °C, 10 min), and the supernatant (∼100 μL) was transferred to an HPLC vial with 200 μL insert for analysis (5 μL injection).
The UPLC–MS/MS system consisted of a Shimadzu Nexera X2 UPLC system (Shimadzu, Duisburg, Germany) hyphenated to a QTrap 5500 MS/MS system (Sciex, Darmstadt, Germany) operating in negative electrospray (ESI^–) mode with the following ion source parameters: ion spray voltage: −4500 V; source temperature: 500 °C; nebulizer gas: 55 psi; heater gas: 65 psi; and curtain gas: 35 psi. The MS/MS parameters, including the collision cell entrance potential (CEP), declustering potential (DP), collision energy (CE), and cell exit potential (CXP), were tuned for each compound and mass transition and are summarized in Supporting Table S3. The dwell time for each compound was 30 ms, and the total cycle time was 0.75 s. Chromatographic separation was achieved on a C18 column (Kinetex C18, 100 mm × 2.1 mm, 1.7 μm, Phenomenex, Aschaffenburg, Germany) at a flow rate of 500 μL/min flow rate. Eluent A was 0.1% formic acid in water, and eluent B was 0.1% formic acid in acetonitrile. B was kept at 3% (1 min), increased to 25% (in 3 min), 90% (in 2 min, 1 min isocratic), and 3% (0.5 min, 2.5 min isocratic). The total time of the analysis was 10 min. The column effluent was introduced from the waste to the MS/MS system between 3 and 7 min.
We applied this method to human plasma samples from a coffee intervention study to investigate the appearance of coffee compounds 1–3 and metabolites M1–M3. Ten participants underwent a washout period (7 days) and then consumed one dose of […]. Blood samples were taken at baseline (0 h) and 1, 4, and 10 h after the intervention. […]

plasma level at baseline (0 h, before coffee intake, human plasma): no peaks were detected | plasma concentration, mean ± SD (4 h after coffee brew (200 mL), human plasma, values above LLOQ): 11.7 ± 10.7 nM | samples above the LLOQ (4 h after coffee): 80% | plasma concentration, mean ± SD (10 h after coffee brew (200 mL), human plasma, values above LLOQ): 13.1 ± 5.8 nM | samples above the LLOQ (10 h after coffee): 90% | concentration at 1 h (both sexes, oral, 200 mL, 1 h after coffee brew (200 mL), human plasma, values above LLOQ, read-out: plasma concentration, mean ± SD): 25.1 ± 4.9 nM | concentration at 4 h (both sexes, oral, 200 mL, 4 h after coffee brew (200 mL), human plasma, values above LLOQ, read-out: plasma concentration, mean ± SD): 14.2 ± 10.5 nM | concentration at 10 h (both sexes, oral, 200 mL, 10 h after coffee brew (200 mL), human plasma, values above LLOQ, read-out: plasma concentration, mean ± SD): 14.4 ± 4.4 nM | Cmax (both sexes, oral, human plasma after coffee brew (200 mL), n = 10, mean ± SD, read-out: estimated cmax in plasma): 25.1 ± 4.9 nM | time of estimated cmax (human plasma after coffee brew (200 mL), sampling only at 0, 1, 4, 10 h): 1 h | concentration at 4 h (oral, 200 mL coffee brew, participant xrwz, 4 h after coffee, b = below LLOQ, read-out: plasma concentration, individual): 1.7 nM | concentration at 1 h (oral, 200 mL, participant ayia, 1 h after coffee, read-out: plasma concentration, individual): 16.4 nM | concentration at 4 h (oral, 200 mL, participant ayia, 4 h after coffee, b = below LLOQ, read-out: plasma concentration, individual): 1.7 nM | concentration at 10 h (oral, 200 mL, participant ayia, 10 h after coffee, read-out: plasma concentration, individual): 17.2 nM | concentration at 1 h (oral, 200 mL, participant cbdu, 1 h after coffee, b = below LLOQ, read-out: plasma concentration, individual): 24.6 nM | concentration at 4 h (oral, 200 mL, participant cbdu, 4 h after coffee, read-out: plasma concentration, individual): 2.9 nM | concentration at 10 h (oral, 200 mL, participant cbdu, 10 h after coffee, read-out: plasma concentration, individual): 17.8 nM | concentration at 1 h (oral, 200 mL, participant eogo, 1 h after coffee, b = below LLOQ, read-out: plasma concentration, individual): 30 nM | concentration at 4 h (oral, 200 mL, participant eogo, 4 h after coffee, b = below LLOQ, read-out: plasma concentration, individual): 4.6 nM | concentration at 10 h (oral, 200 mL, participant eogo, 10 h after coffee, b = below LLOQ, read-out: plasma concentration, individual): 12.3 nM | concentration at 1 h (oral, 200 mL, participant ggot, 1 h after coffee, read-out: plasma concentration, individual): 32.2 nM | concentration at 4 h (oral, 200 mL, participant ggot, 4 h after coffee, b = below LLOQ, read-out: plasma concentration, individual): 9.7 nM | concentration at 10 h (oral, 200 mL, participant ggot, 10 h after coffee, b = below LLOQ, read-out: plasma concentration, individual): 1.7 nM | concentration at 1 h (oral, 200 mL, participant imhz, 1 h after coffee, read-out: plasma concentration, individual): 30.6 nM | concentration at 4 h (oral, 200 mL, participant imhz, 4 h after coffee, read-out: plasma concentration, individual): 10.5 nM | concentration at 10 h (oral, 200 mL, participant imhz, 10 h after coffee, read-out: plasma concentration, individual): 21.5 nM | concentration at 1 h (oral, 200 mL, participant mgjj, 1 h after coffee, read-out: plasma concentration, individual): 23.6 nM | concentration at 4 h (oral, 200 mL, participant mgjj, 4 h after coffee, read-out: plasma concentration, individual): 12.4 nM | concentration at 10 h (oral, 200 mL, participant mgjj, 10 h after coffee, read-out: plasma concentration, individual): 17.5 nM | concentration at 1 h (oral, 200 mL, participant rrmk, 1 h after coffee, read-out: plasma concentration, individual): 22 nM | concentration at 4 h (oral, 200 mL, participant rrmk, 4 h after coffee, b = below LLOQ, read-out: plasma concentration, individual): 19.7 nM | concentration at 10 h (oral, 200 mL, participant rrmk, 10 h after coffee, read-out: plasma concentration, individual): 14.4 nM | concentration at 1 h (oral, 200 mL, participant wbqj, 1 h after coffee, b = below LLOQ, read-out: plasma concentration, individual): 27.5 nM | concentration at 4 h (oral, 200 mL, participant wbqj, 4 h after coffee, b = below LLOQ, read-out: plasma concentration, individual): 36 nM | concentration at 10 h (oral, 200 mL, participant wbqj, 10 h after coffee, b = below LLOQ, read-out: plasma concentration, individual): 8.5 nM | concentration at 1 h (oral, 200 mL, participant wbvs, 1 h after coffee, read-out: plasma concentration, individual): 23.8 nM | concentration at 4 h (oral, 200 mL, participant wbvs, 4 h after coffee, read-out: plasma concentration, individual): 17.8 nM | concentration at 10 h (oral, 200 mL, participant wbvs, 10 h after coffee, read-out: plasma concentration, individual): 9.7 nM | concentration at 1 h (oral, 200 mL, participant xrwz, 1 h after coffee, read-out: plasma concentration, individual): 20.2 nM | concentration at 10 h (oral, 200 mL, participant xrwz, 10 h after coffee, b = below LLOQ, read-out: plasma concentration, individual): 10.5 nM | participants in whom plasma concentration increased between 4 and 10 h (individual plots, after first maximum at 1 h): 60%
Compound: C=C1C2CCC3C4(C)CC(O)CC(C(=O)OC5OC(C(=O)O)C(O)C(O)C5O)C4CCC3(C2)C1O [M1, atractyligenin-19-O-β-D-glucuronide]
